According to patent US20260062422A1 (Halda Therapeutics OpCo, Inc., priority 2022, published 2026):

Tests used:
T47D cells = assay: Cellular growth inhibition assay for T47D cells, CellTiter-Glo; type: cell-based, human; settings: 72 hours treatment, CellTiter-Glo 2.0 cell viability
Procedure, shortened: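 Luminescence from CellTiter-Glo 2.0 after 72 h of compound exposure gives the viability signal. Cells grew in insulin-supplemented (0.2 units/mL) DMEM with 10% FBS and were treated one day after seeding at 0.5% DMSO. GI50 values come from four-parameter nonlinear regression.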

[1] = tested on: T-Rex 293 cell line SC3 cells having increased expression of androgen receptor protein due to exposure to doxycycline; assay: Cellular growth inhibition, T-Rex 293 SC3 cells with doxycycline (androgen receptor induced), CellTiter-Glo; type: cell-based; settings: T-Rex 293 SC3 cells with 10 ng/mL doxycycline (increased androgen receptor expression)
Procedure, shortened: (§1)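 Doxycycline-inducible androgen receptor T-Rex 293 clone SC3, seeded at 2500/well in phenol red-free DMEM with 10% charcoal-dextran FBS, without doxycycline or with 10 ng/mL to induce receptor. Compound added after 24 h (0.5% DMSO), 72 h at 37 °C; CellTiter-Glo 2.0 luminescence, GI50 by four-parameter fit.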

VCaP cells = assay: Cellular growth inhibition assay for VCaP cells, CellTiter-Glo; type: cell-based, human; settings: 72 hours treatment, CellTiter-Glo 2.0
Procedure, shortened: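 GI50 values come from four-parameter curve fits of luminescence data normalized to a zero baseline. Compound, in medium with 0.5% DMSO, was added one day after plating and left for 72 h before CellTiter-Glo 2.0 addition.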

[2] = tested on: T-Rex 293 cell line SC3 cells lacking increased expression of androgen receptor protein; assay: Cellular growth inhibition, T-Rex 293 SC3 cells without doxycycline, CellTiter-Glo; type: cell-based; settings: T-Rex 293 SC3 cells not exposed to doxycycline, CellTiter-Glo 2.0
Procedure, shortened: as §1

Row | SMILES | GI50 (T47D cells; Homo sapiens, T47D, 72 h) [nM] | GI50 (VCaP cells; Homo sapiens, VCaP, 72 h) [nM] | GI50 (T47D cells) [nM] | GI50 (VCaP cells) [nM] | GI50 ([1]; 72 h) [nM] | GI50 ([2]; 72 h) [nM] | GI50 ([1]; 72 hours) [nM] | GI50 ([2]; 72 hours) [nM]
1 | Cc1sc2c(c1C)C(c1ccc(CN3CC4(CCCN(c5ncc(C(=O)N[C@H]6C(C)(C)[C@H](Oc7ccc(C#N)c(Cl)c7)C6(C)C)cn5)C4)C3)cc1)=N[C@H](Cc1ncco1)c1nnc(C)n1-2 [Compound I-149] | > 3000 | 500 to 1500 | – | – | < 500 | > 3000 | – | –
2 | Cc1sc2c(c1C)C(c1ccc(C(=O)N3CCC(Cc4ncc(C(=O)N[C@H]5C(C)(C)[C@H](Oc6ccc(C#N)c(Cl)c6)C5(C)C)cn4)CC3)cc1)=N[C@H](Cc1ncco1)c1nnc(C)n1-2 [Compound I-289] | > 3000 | 500 to 1500 | – | – | < 500 | > 3000 | – | –
3 | Cc1sc2c(c1C)C(c1ccc(N3CC(C4CCCN(c5ncc(C(=O)N[C@H]6C(C)(C)[C@H](Oc7ccc(C#N)c(Cl)c7)C6(C)C)cn5)C4)C3)cc1)=N[C@@H](C)c1nnc(C)n1-2 (stereo partly drawn) [Compound I-474] | – | – | < 500 | > 3000 | – | – | < 500 | 500 to 1500
4 | Cc1sc2c(c1C)C(c1ccc(N3CCC(CCc4cnc(C(=O)N[C@H]5C(C)(C)[C@H](Oc6ccc(C#N)c(Cl)c6)C5(C)C)cn4)CC3)cc1)=N[C@@H](Cc1ncco1)c1nnc(C)n1-2 [Compound I-478] | 500 to 1500 | < 500 | – | – | < 500 | 500 to 1500 | – | –
5 | Cc1sc2c(c1C)C(c1ccc(C(=O)N3CC[C@@]4(CCCN(c5ncc(C(=O)N[C@H]6C(C)(C)[C@H](Oc7ccc(C#N)c(Cl)c7)C6(C)C)cn5)C4)C3)cc1)=N[C@@H](Cc1ncco1)c1nnc(C)n1-2 [Compound I-256] | > 3000 | > 3000 | – | – | > 3000 | > 3000 | – | –
6 | Cc1sc2c(c1C)C(c1ccc(C[C@H]3C[C@H]([C@H]4CCCN(c5ncc(C(=O)N[C@H]6C(C)(C)[C@H](Oc7ccc(C#N)c(Cl)c7)C6(C)C)cn5)C4)C3)cc1)=N[C@@H](Cc1ncco1)c1nnc(C)n1-2 [Compound I-159] | > 3000 | > 3000 | – | – | > 3000 | > 3000 | – | –
7 | Cc1sc2c(c1C)C(c1ccc(CN(C)C(=O)CN(C)c3ncc(C(=O)N[C@H]4C(C)(C)[C@H](Oc5ccc(C#N)c(Cl)c5)C4(C)C)cn3)cc1)=N[C@@H](Cc1ncco1)c1nnc(C)n1-2 [Compound I-335] | 500 to 1500 | 500 to 1500 | – | – | < 500 | > 3000 | – | –
8 | Cc1sc2c(c1C)C(c1ccc(N(C)CC(=O)NCc3ncc(C(=O)N[C@H]4C(C)(C)[C@H](Oc5ccc(C#N)c(Cl)c5)C4(C)C)cn3)cc1)=N[C@H](Cc1ncco1)c1nnc(C)n1-2 [Compound I-374] | 500 to 1500 | < 500 | – | – | > 3000 | > 3000 | – | –
9 | Cc1sc2c(c1C)C(c1ccc([C@@H]3CC[C@@]4(C3)CN(c3ncc(C(=O)N[C@H]5C(C)(C)[C@H](Oc6ccc(C#N)c(Cl)c6)C5(C)C)cn3)CCO4)cc1)=N[C@@H](Cc1ncco1)c1nnc(C)n1-2 [Compound I-406] | < 500 | < 500 | – | – | < 500 | > 3000 | – | –
10 | Cc1sc2c(c1C)C(c1ccc([C@H]3C[C@H]([C@@H]4CCN(c5ncc(C(=O)N[C@H]6C(C)(C)[C@H](Oc7ccc(C#N)c(Cl)c7)C6(C)C)cn5)C4)C3)cc1)=N[C@@H](Cc1ncco1)c1nnc(C)n1-2 [Compound I-414] | > 3000 | > 3000 | – | – | > 3000 | > 3000 | – | –
11 | Cc1sc2c(c1C)C(c1ccc(O[C@H]3CO[C@]4(CCCN(c5ncc(C(=O)N[C@H]6C(C)(C)[C@H](Oc7ccc(C#N)c(Cl)c7)C6(C)C)cn5)C4)C3)cc1)=N[C@@H](Cc1ncco1)c1nnc(C)n1-2 [Compound I-192] | 500 to 1500 | 500 to 1500 | – | – | < 500 | 500 to 1500 | – | –
12 | Cc1sc2c(c1C)C(c1ccc(N3CCC(CNC(=O)c4ncc(C(=O)N[C@H]5C(C)(C)[C@H](Oc6ccc(C#N)c(Cl)c6)C5(C)C)cn4)CC3)cc1)=N[C@H](Cc1ncco1)c1nnc(C)n1-2 [Compound I-291] | 500 to 1500 | < 500 | – | – | < 500 | 500 to 1500 | – | –
13 | COCC[C@@H]1N=C(c2ccc(N3CC(C4CCN(c5ncc(C(=O)N[C@H]6C(C)(C)[C@H](Oc7ccc(C#N)c(Cl)c7)C6(C)C)cn5)CC4)C3)cc2)c2c(sc(C)c2C)-n2c(C)nnc21 [Compound I-610] | 1500 to 3000 | < 500 | – | – | < 500 | > 3000 | – | –
14 | Cc1sc2c(c1C)C(c1ccc(CCN3CC4(CCCN(c5ncc(C(=O)N[C@H]6C(C)(C)[C@H](Oc7ccc(C#N)c(Cl)c7)C6(C)C)cn5)C4)C3)cc1)=N[C@@H](Cc1ncco1)c1nnc(C)n1-2 [Compound I-272] | < 500 | < 500 | – | – | < 500 | 500 to 1500 | – | –
15 | Cc1sc2c(c1C)C(c1ccc(-n3ncc(C4CCN(c5ncc(C(=O)N[C@H]6C(C)(C)[C@H](Oc7ccc(C#N)c(Cl)c7)C6(C)C)cn5)CC4)n3)cc1)=N[C@@H](Cc1ncco1)c1nnc(C)n1-2 [Compound I-430] | < 500 | < 500 | – | – | < 500 | < 500 | – | –
16 | Cc1sc2c(c1C)C(c1ccc(CC[C@H]3CC[C@]4(CCCN(c5ncc(C(=O)N[C@H]6C(C)(C)[C@H](Oc7ccc(C#N)c(Cl)c7)C6(C)C)cn5)C4)C3)cc1)=N[C@H](Cc1ncco1)c1nnc(C)n1-2 [Compound I-251] | < 500 | < 500 | – | – | < 500 | > 3000 | – | –
17 | Cc1sc2c(c1C)C(c1ccc(Cl)cc1)=N[C@H](CC(=O)NCCCCOC1CCN(c3ncc(C(=O)N[C@H]4C(C)(C)[C@H](Oc5ccc(C#N)c(Cl)c5)C4(C)C)cn3)CC1)c1nnc(C)n1-2 [Compound I-21] | 500 to 1500 | < 500 | – | – | < 500 | > 3000 | – | –

Continued, in another order:

Row | GI50 (T47D cells; Homo sapiens, T47D, 72 h) [nM] | GI50 (VCaP cells; Homo sapiens, VCaP, 72 h) [nM] | GI50 (T47D cells) [nM] | GI50 (VCaP cells) [nM] | SMILES | GI50 ([1]; 72 h) [nM] | GI50 ([2]; 72 h) [nM] | GI50 ([1]; 72 hours) [nM] | GI50 ([2]; 72 hours) [nM]
18 | < 500 | < 500 | – | – | Cc1sc2c(c1C)C(c1ccc([C@H]3C[C@H]([C@H]4CCN(c5ncc(C(=O)N[C@H]6C(C)(C)[C@H](Oc7ccc(C#N)c(Cl)c7)C6(C)C)cn5)C4)C3)cc1)=N[C@H](Cc1ncco1)c1nnc(C)n1-2 [Compound I-418] | < 500 | < 500 | – | –
19 | < 500 | < 500 | – | – | Cc1sc2c(c1C)C(c1ccc(CCCCC3CCN(c4ncc(C(=O)N[C@H]5C(C)(C)[C@H](Oc6ccc(C#N)c(Cl)c6)C5(C)C)cn4)CC3)cc1)=NC(Cc1ncco1)c1nnc(C)n1-2 (stereo partly drawn) [Compound I-135] | < 500 | > 3000 | – | –
20 | < 500 | < 500 | – | – | Cc1sc2c(c1C)C(c1ccc(CC(C)(C)N3CC4(CCCN(c5ncc(C(=O)N[C@H]6C(C)(C)[C@H](Oc7ccc(C#N)c(Cl)c7)C6(C)C)cn5)C4)C3)cc1)=N[C@@H](Cc1ncco1)c1nnc(C)n1-2 [Compound I-429] | < 500 | 1500 to 3000 | – | –
21 | < 500 | 500 to 1500 | – | – | CCNC(=O)C[C@@H]1N=C(c2ccc(OC3CC(N(C)C4CCN(c5ncc(C(=O)N[C@H]6C(C)(C)[C@H](Oc7ccc(C#N)c(Cl)c7)C6(C)C)cn5)CC4)C3)cc2)c2c(sc(C)c2C)-n2c(C)nnc21 (stereo partly drawn) [Compound I-82] | < 500 | 500 to 1500 | – | –
22 | < 500 | 500 to 1500 | – | – | Cc1sc2c(c1C)C(c1ccc(OC3CC4(CCN(c5ccc(C(=O)N[C@H]6C(C)(C)[C@H](Oc7ccc(C#N)c(Cl)c7)C6(C)C)cc5)CC4)C3)cc1)=N[C@@H](Cc1ncco1)c1nnc(C)n1-2 [Compound I-196] | < 500 | > 3000 | – | –
23 | < 500 | < 500 | – | – | Cc1sc2c(c1C)C(c1ccc(O[C@H]3CC[C@]4(CCN(c5ncc(C(=O)N[C@H]6C(C)(C)[C@H](Oc7ccc(C#N)c(Cl)c7)C6(C)C)cn5)C4)CC3)cc1)=N[C@@H](Cc1ncco1)c1nnc(C)n1-2 [Compound I-178] | < 500 | < 500 | – | –
24 | < 500 | < 500 | – | – | Cc1sc2c(c1C)C(c1ccc(CNC(=O)C3CCN(c4ncc(C(=O)N[C@H]5C(C)(C)[C@H](Oc6ccc(C#N)c(Cl)c6)C5(C)C)cn4)CC3)cc1)=N[C@@H](Cc1ncco1)c1nnc(C)n1-2 [Compound I-263] | < 500 | 1500 to 3000 | – | –
25 | < 500 | < 500 | – | – | CCNC(=O)C[C@@H]1N=C(c2ccc(N3CCC(OC4CN(c5ncc(C(=O)N[C@H]6C(C)(C)[C@H](Oc7ccc(C#N)c(Cl)c7)C6(C)C)cn5)C4)CC3)cc2)c2c(sc(C)c2C)-n2c(C)nnc21 [Compound I-118] | < 500 | 500 to 1500 | – | –
26 | < 500 | 500 to 1500 | – | – | Cc1sc2c(c1C)C(c1ccc(N3CCCC(C(=O)N4CCC[C@H](c5ncc(C(=O)N[C@H]6C(C)(C)[C@H](Oc7ccc(C#N)c(Cl)c7)C6(C)C)cn5)C4)C3)cc1)=N[C@@H](Cc1ncco1)c1nnc(C)n1-2 (stereo partly drawn) [Compound I-336] | < 500 | 500 to 1500 | – | –
27 | < 500 | < 500 | – | – | Cc1sc2c(c1C)C(c1ccc([C@@H]3CC[C@]4(C3)CN(c3ncc(C(=O)N[C@H]5C(C)(C)[C@H](Oc6ccc(C#N)c(Cl)c6)C5(C)C)cn3)CCO4)cc1)=N[C@@H](Cc1ncco1)c1nnc(C)n1-2 [Compound I-405] | < 500 | 500 to 1500 | – | –
